Test results: US8759379B2, “Inhibitors of cytochrome P450” (Gilead Sciences, Inc., priority 2008, dated 2014)

Biological target: T1, CYP450 3A4 (Homo sapiens, UniProt P08684)
T1 construct: Pooled (n≧15 donors) human hepatic microsomal fraction was obtained from BD-Gentest; tissue BD-Gentest (Woburn, Mass.); host or cells: pooled human liver microsomes (n≥15 donors)
Assay: CYP3A inhibition assay (terfenadine oxidase, human hepatic microsomal fraction)
Assay type: biochemical
Conditions: pooled human hepatic microsomes 0.25 mg/mL, terfenadine 3 μM
Experimental: Pooled (n≧15 donors) human hepatic microsomal fraction was obtained from BD-Gentest (Woburn, Mass.) who also supplied hydroxy-terfenadine, 4′-hydroxydiclofenac and NADPH regenerating system. Ritonavir was prepared from commercial Norvir® oral solution (Abbott Laboratories, Abbott Park, Ill.). Other reagents were from Sigma-Aldrich (St. Louis, Mo.) and included terfenadine, fexofenadine, BRL 15572, diclofenac and mefenamic acid.
Incubations were performed in duplicate in 50 mM potassium phosphate buffer, pH 7.4 with NADPH regenerating system used as described by the manufacturer. […] The final substrate concentrations used were equal to the apparent Km values for the activities determined under the same conditions. Inhibitors were dissolved in DMSO, and the final concentration of DMSO, from both substrate and inhibitor vehicles, was 1% (v/v). Incubations were performed at 37° C. with shaking and were initiated by addition of substrate. Aliquots were then removed at 0, 7 and 15 minutes. Samples were quenched by treatment with an acetonitrile, formic acid, water (94.8%/0.2%/5%, v/v/v) mixture containing internal standard. Precipitated protein was removed by centrifugation at 3000 rpm for 10 min and aliquots of the supernatant were then subjected to LC-MS analysis.
The LC-MS system consisted of a Waters Acquity UPLC, with a binary solvent manager and a refrigerated (8° C.) sample organizer and sample manager, interfaced to a Micromass Quattro Premier tandem mass spectrometer operating in electrospray ionization mode. The column was a Waters Acquity UPLC BEH C18 2.1×50 mm, 1.7 μm […]. Mobile phases consisted of mixtures of acetonitrile, formic acid and water, the composition for mobile phase A being 1%/0.2%/98.8% (v/v/v) and that for mobile phase B being 94.8%/0.2%/5% (v/v/v). The injection volumes were 5 μL and the flow rate was 0.8 mL/min. Concentrations of metabolites were determined by reference to standard curves generated with authentic analytes under the same conditions as the incubations. […]

T1 sequence (P08684 whole entry): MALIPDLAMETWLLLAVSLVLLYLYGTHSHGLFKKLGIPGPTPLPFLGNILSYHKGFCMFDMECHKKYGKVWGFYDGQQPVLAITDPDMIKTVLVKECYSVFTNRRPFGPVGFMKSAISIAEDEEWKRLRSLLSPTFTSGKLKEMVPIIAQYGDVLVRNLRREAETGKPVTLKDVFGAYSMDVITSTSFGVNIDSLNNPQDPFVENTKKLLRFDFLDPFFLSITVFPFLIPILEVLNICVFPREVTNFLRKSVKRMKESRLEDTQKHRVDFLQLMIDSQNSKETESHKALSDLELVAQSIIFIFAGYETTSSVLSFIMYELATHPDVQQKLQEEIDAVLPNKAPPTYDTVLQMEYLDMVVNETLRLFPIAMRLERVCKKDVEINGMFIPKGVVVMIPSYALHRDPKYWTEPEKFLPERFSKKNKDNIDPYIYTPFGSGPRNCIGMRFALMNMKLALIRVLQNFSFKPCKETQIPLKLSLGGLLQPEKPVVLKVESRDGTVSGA

Row | IC50 [nM] | Structure (SMILES)
1 | 201 to 500 | CC(C)CN(CC[C@H](Cc1ccccc1)NC(=O)O[C@H]1CO[C@H]2OCC[C@H]21)S(=O)(=O)c1ccc(N)cc1 [Example 27]
2 | 501 to 1000 | CC(C)CN(CC[C@H](Cc1ccccc1)NC(=O)O[C@H]1CCOC1)S(=O)(=O)c1ccc(N)cc1 [Example 28]
3 | 100 to 200 | CC(C)c1nc(CN(C)C(=O)N[C@H](C(=O)N[C@H](CCN(Cc2ccccc2)C(=O)OCc2cncs2)Cc2ccccc2)C(C)C)cs1 [Example 103]
